Data as given in ChEMBL document CHEMBL3525917, “Species difference in the mechanism of nonlinear pharmacokinetics of E2074, a novel sodium channel inhibitor, in rats, dogs, and monkeys” (Drug Metab Dispos, 2013).

Columns and labels:
[1] = Drug metabolism in cynomolgus monkey liver microsomes after 15 mins by Michaelis-Menten plot analysis; assay type: ADME, Macaca fascicularis
[2] = (§1) Drug metabolism in beagle dog liver microsomes after 30 mins by Michaelis-Menten plot analysis; assay type: ADME, Canis lupus familiaris; conditions: beagle, liver microsomes
Liver microsome [3] = assay: as §1; assay type: ADME, Canis lupus familiaris; conditions: microsomes, 0.5 h
[4] = (§2) Drug metabolism in beagle dog liver microsomes after 30 mins by biphasic component Michaelis-Menten plot analysis; assay type: ADME, Canis lupus familiaris; conditions: beagle, liver microsomes
Liver microsome [5] = assay: as §2; assay type: ADME, Canis lupus familiaris; conditions: microsomes, 0.5 h
Canis familiaris [6] = species on record: Canis familiaris; assay: Hepatic blood clearance in beagle dog; assay type: ADME, organism-based, Canis lupus familiaris; conditions: in vivo
[7] = Drug metabolism in cynomolgus monkey intestinal microsomes by Michaelis-Menten plot analysis; assay type: ADME, Macaca fascicularis, Intestine, Microsome
[8] = Drug metabolism in Sprague-Dawley rat intestinal microsomes; assay type: ADME, Intestine, Microsome
[9] = Drug metabolism in beagle dog intestinal microsomes; assay type: ADME, Canis lupus familiaris, Intestine, Microsome
[10] = Fraction unbound in Sprague-Dawley rat plasma at 0.25 uM by equilibrium dialysis technique; assay type: ADME, cell-free
[11] = Fraction unbound in beagle dog plasma at 0.25 uM by equilibrium dialysis technique; assay type: ADME, cell-free, Canis lupus familiaris
[12] = Fraction unbound in cynomolgus monkey plasma at 0.25 uM by equilibrium dialysis technique; assay type: ADME, cell-free, Macaca fascicularis
Rattus norvegicus [13] = species on record: Rattus norvegicus; assay: Hepatic blood clearance in Sprague-Dawley rat; assay type: ADME, organism-based; conditions: in vivo
[14] = Ratio of drug level in blood to plasma in Sprague-Dawley rat at 0.25 uM after 10 mins by equilibrium dialysis technique; assay type: ADME; conditions: blood and plasma
[15] = Ratio of drug level in blood to plasma in beagle dog at 0.25 uM after 10 mins by equilibrium dialysis technique; assay type: ADME, Canis lupus familiaris; conditions: blood and plasma
[16] = Ratio of drug level in blood to plasma in cynomolgus monkey at 0.25 uM after 10 mins by equilibrium dialysis technique; assay type: ADME, Macaca fascicularis; conditions: blood and plasma
[17] = Fraction unbound in Sprague-Dawley rat liver microsomes at 0.25 uM by equilibrium dialysis technique; assay type: ADME
[18] = Fraction unbound in beagle dog liver microsomes at 0.25 uM by equilibrium dialysis technique; assay type: ADME, Canis lupus familiaris
[19] = Fraction unbound in cynomolgus monkey liver microsomes at 0.25 uM by equilibrium dialysis technique; assay type: ADME, Macaca fascicularis
Rattus norvegicus [20] = species on record: Rattus norvegicus; assay: Unbound intrinsic clearance in Sprague-Dawley rat; assay type: ADME, organism-based; conditions: in vivo
Canis familiaris [21] = species on record: Canis familiaris; assay: Unbound intrinsic clearance in beagle dog; assay type: ADME, organism-based, Canis lupus familiaris; conditions: in vivo
Cynomolgus monkey [22] = assay: Unbound intrinsic clearance in cynomolgus monkey; assay type: ADME, organism-based, Macaca fascicularis; conditions: in vivo
Cynomolgus monkey [23] = assay: Hepatic blood clearance in cynomolgus monkey; assay type: ADME, organism-based, Macaca fascicularis; conditions: in vivo
[24] = Blood clearance in Sprague-Dawley rat; assay type: ADME, organism-based
[25] = Blood clearance in beagle dog; assay type: ADME, organism-based, Canis lupus familiaris
[26] = Blood clearance in cynomolgus monkey; assay type: ADME, organism-based, Macaca fascicularis
[27] = Cmax in double-cannulated Sprague-Dawley rat portal vein at 10 mg/kg, po; assay type: ADME, organism-based; set-up: dose 10 mg/kg, route oral
[28] = Cmax in double-cannulated Sprague-Dawley rat jugular vein at 10 mg/kg, po; assay type: ADME, organism-based; set-up: dose 10 mg/kg, route oral
[29] = Half life in cynomolgus monkey at 1 mg/kg, iv in presence of ketoconazole; assay type: ADME, organism-based, Macaca fascicularis; set-up: dose 1 mg/kg, route intravenous; conditions: in vivo
[30] = AUC in cynomolgus monkey at 1 mg/kg, iv in presence of ketoconazole; assay type: ADME, organism-based, Macaca fascicularis; set-up: dose 1 mg/kg, route intravenous; conditions: plasma
[31] = Clearance in cynomolgus monkey at 1 mg/kg, iv in presence of ketoconazole; assay type: ADME, organism-based, Macaca fascicularis; set-up: dose 1 mg/kg, route intravenous; conditions: in vivo
[32] = Volume of distribution at steady state in cynomolgus monkey at 1 mg/kg, iv in presence of ketoconazole; assay type: ADME, organism-based, Macaca fascicularis; set-up: dose 1 mg/kg, route intravenous; conditions: in vivo, read-out: Vdss
Cynomolgus monkey [33] = assay: Ratio of dose normalized AUC in cynomolgus monkey at 1 mg/kg, iv in presence of ketoconazole to dose normalized AUC in cynomolgus monkey at 1 mg/kg, iv; assay type: ADME, organism-based, Macaca fascicularis; conditions: in vivo
[34] = Tmax in cynomolgus monkey at 3 mg/kg, po in presence of ketoconazole; assay type: ADME, organism-based, Macaca fascicularis; set-up: dose 3 mg/kg, route oral; conditions: in vivo
[35] = Cmax in cynomolgus monkey at 3 mg/kg, po in presence of ketoconazole; assay type: ADME, organism-based, Macaca fascicularis; set-up: dose 3 mg/kg, route oral; conditions: in vivo
[36] = Half life in cynomolgus monkey at 3 mg/kg, po in presence of ketoconazole; assay type: ADME, organism-based, Macaca fascicularis; set-up: dose 3 mg/kg, route oral; conditions: in vivo
[37] = AUC in cynomolgus monkey at 3 mg/kg, po in presence of ketoconazole; assay type: ADME, organism-based, Macaca fascicularis; set-up: dose 3 mg/kg, route oral; conditions: plasma
Cynomolgus monkey [38] = assay: Ratio of dose normalized Cmax in cynomolgus monkey at 3 mg/kg, po in presence of ketoconazole to dose normalized Cmax in cynomolgus monkey at 3 mg/kg, po; assay type: ADME, organism-based, Macaca fascicularis; conditions: in vivo
Cynomolgus monkey [39] = assay: Ratio of dose normalized AUC in cynomolgus monkey at 3 mg/kg, po in presence of ketoconazole to dose normalized AUC in cynomolgus monkey at 3 mg/kg, po; assay type: ADME, organism-based, Macaca fascicularis; conditions: in vivo
[40] = Tmax in cynomolgus monkey at 10 mg/kg, po in presence of ketoconazole; assay type: ADME, organism-based, Macaca fascicularis; set-up: dose 10 mg/kg, route oral; conditions: in vivo
[41] = Cmax in cynomolgus monkey at 10 mg/kg, po in presence of ketoconazole; assay type: ADME, organism-based, Macaca fascicularis; set-up: dose 10 mg/kg, route oral; conditions: in vivo
[42] = Half life in cynomolgus monkey at 10 mg/kg, po in presence of ketoconazole; assay type: ADME, organism-based, Macaca fascicularis; set-up: dose 10 mg/kg, route oral; conditions: in vivo
[43] = AUC in cynomolgus monkey at 10 mg/kg, po in presence of ketoconazole; assay type: ADME, organism-based, Macaca fascicularis; set-up: dose 10 mg/kg, route oral; conditions: plasma
Cynomolgus monkey [44] = assay: Ratio of dose normalized Cmax in cynomolgus monkey at 10 mg/kg, po in presence of ketoconazole to dose normalized Cmax in cynomolgus monkey at 10 mg/kg, po; assay type: ADME, organism-based, Macaca fascicularis; conditions: in vivo
Cynomolgus monkey [45] = assay: Ratio of dose normalized AUC in cynomolgus monkey at 10 mg/kg, po in presence of ketoconazole to dose normalized AUC in cynomolgus monkey at 10 mg/kg, po; assay type: ADME, organism-based, Macaca fascicularis; conditions: in vivo
[46] = biological target: T1, MDR1A (ABCB1, P-glycoprotein) (Mus musculus, UniProt P21447); assay: Activity of mouse MDR1A expressed in pig LLC-PK1 cells assessed as permeability from apical to basolateral side at 1 uM after 2 hrs; assay type: ADME, cell-based; conditions: read-out: permeability
[47] = biological target: T1, MDR1A (ABCB1, P-glycoprotein); assay: Activity of mouse MDR1A expressed in pig LLC-PK1 cells assessed as permeability from basolateral to apical side at 1 uM after 2 hrs; assay type: ADME, cell-based; conditions: read-out: permeability
[48] = Half life in Sprague-Dawley rat at 1 mg/kg, iv; assay type: ADME, organism-based; set-up: dose 1 mg/kg, route intravenous; conditions: in vivo
[49] = AUC in Sprague-Dawley rat at 1 mg/kg, iv; assay type: ADME, organism-based; set-up: dose 1 mg/kg, route intravenous; conditions: plasma
[50] = Clearance in Sprague-Dawley rat at 1 mg/kg, iv; assay type: ADME, organism-based; set-up: dose 1 mg/kg, route intravenous; conditions: in vivo
[51] = Tmax in cynomolgus monkey at 3 mg/kg, po; assay type: ADME, organism-based, Macaca fascicularis; set-up: dose 3 mg/kg, route oral; conditions: in vivo
[52] = Volume of distribution at steady state in Sprague-Dawley rat at 1 mg/kg, iv; assay type: ADME, organism-based; set-up: dose 1 mg/kg, route intravenous; conditions: in vivo, read-out: Vdss

T1 sequence (P21447 whole entry): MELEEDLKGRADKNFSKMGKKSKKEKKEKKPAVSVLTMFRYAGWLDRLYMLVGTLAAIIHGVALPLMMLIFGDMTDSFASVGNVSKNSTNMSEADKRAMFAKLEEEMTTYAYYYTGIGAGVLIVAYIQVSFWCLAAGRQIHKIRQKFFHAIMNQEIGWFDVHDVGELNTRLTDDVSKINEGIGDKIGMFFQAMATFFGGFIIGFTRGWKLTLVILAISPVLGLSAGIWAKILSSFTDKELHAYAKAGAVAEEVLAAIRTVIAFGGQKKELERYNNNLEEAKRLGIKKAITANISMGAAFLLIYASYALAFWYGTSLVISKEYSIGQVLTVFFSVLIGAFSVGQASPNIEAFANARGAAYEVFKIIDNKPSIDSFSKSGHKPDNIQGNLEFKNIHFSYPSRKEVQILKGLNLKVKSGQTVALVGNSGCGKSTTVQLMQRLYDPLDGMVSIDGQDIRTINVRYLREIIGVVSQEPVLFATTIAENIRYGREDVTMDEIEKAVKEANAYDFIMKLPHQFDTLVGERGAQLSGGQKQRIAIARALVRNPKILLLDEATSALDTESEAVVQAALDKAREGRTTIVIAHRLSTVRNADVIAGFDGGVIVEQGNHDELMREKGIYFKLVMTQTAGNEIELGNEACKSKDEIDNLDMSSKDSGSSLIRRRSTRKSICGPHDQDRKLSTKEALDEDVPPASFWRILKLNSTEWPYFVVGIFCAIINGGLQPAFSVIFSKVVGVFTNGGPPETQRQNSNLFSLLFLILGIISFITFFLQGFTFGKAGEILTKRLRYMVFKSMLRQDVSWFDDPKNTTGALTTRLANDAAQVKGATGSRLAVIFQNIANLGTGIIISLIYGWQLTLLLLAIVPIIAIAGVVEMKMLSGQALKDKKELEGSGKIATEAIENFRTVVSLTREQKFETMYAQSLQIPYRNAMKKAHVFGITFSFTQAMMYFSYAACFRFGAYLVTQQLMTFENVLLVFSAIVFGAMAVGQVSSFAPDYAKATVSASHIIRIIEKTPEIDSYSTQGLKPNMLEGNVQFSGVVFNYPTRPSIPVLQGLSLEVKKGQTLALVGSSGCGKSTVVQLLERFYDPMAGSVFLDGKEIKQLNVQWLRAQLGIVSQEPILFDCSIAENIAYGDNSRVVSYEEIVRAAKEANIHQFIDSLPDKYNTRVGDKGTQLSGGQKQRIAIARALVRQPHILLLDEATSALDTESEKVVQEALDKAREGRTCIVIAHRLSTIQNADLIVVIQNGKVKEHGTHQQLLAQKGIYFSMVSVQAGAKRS

Cc1nn(C[C@H](F)CN2C3CCC2CC(OCc2cccc(F)c2)C3)c(=O)n1C (some centres undefined)
Km at 0.25 h ([1]; liver microsomes): 42.4 µM
Vmax ([1]; microsomes, 0.25 h): 3.58 nmol/min/mg
Km at 0.5 h [2]: 0.41 µM
Vmax (Liver microsome [3]): 0.07 nmol/min/mg
Km at 0.5 h [4]: 21.5 µM
Vmax (Liver microsome [5]): 0.72 nmol/min/mg
CLH (Canis familiaris [6]): 30.5 mL/min/kg
Km ([7]; intestinal microsomes): 34.6 µM
Vmax ([7]; microsomes): 0.66 nmol/min/mg
Drug metabolism [8]: metabolite_not_detected
Drug metabolism [9]: metabolite_not_detected
fraction unbound at 0.25 µM [10]: 0.675
fraction unbound at 0.25 µM [11]: 0.601
fraction unbound at 0.25 µM [12]: 0.676
CLH (Rattus norvegicus [13]): 53.2 mL/min/kg
blood plasma ratio at 10 min, 0.25 µM [14]: 0.89
blood plasma ratio at 10 min, 0.25 µM [15]: 0.86
blood plasma ratio at 10 min, 0.25 µM [16]: 1.01
fraction unbound at 0.25 µM [17]: 1
fraction unbound at 0.25 µM [18]: 1
fraction unbound at 0.25 µM [19]: 1
CL free (Rattus norvegicus [20]): 196 µL/min/mg
CL free (Canis familiaris [21]): 208 µL/min/mg
CL free (Cynomolgus monkey [22]): 84 µL/min/mg
CLH (Cynomolgus monkey [23]): 33 mL/min/kg
clearance [24]: 60 mL/min/kg
clearance [25]: 32.8 mL/min/kg
clearance [26]: 22.3 mL/min/kg
Cmax [27]: 10600 ng/mL
Cmax [28]: 1040 ng/mL
half-life [29]: 1.96 h
AUC [30]: 820 ng·h/mL
clearance [31]: 20.3 mL/min/kg
Vd [32]: 3.29 L/kg
Ratio (Cynomolgus monkey [33]): 1
Tmax [34]: 1 h
Cmax [35]: 400 ng/mL
half-life [36]: 2.2 h
AUC [37]: 1550 ng·h/mL
Ratio (Cynomolgus monkey [38]): 1
Ratio (Cynomolgus monkey [39]): 1
Tmax [40]: 2 h
Cmax [41]: 1520 ng/mL
half-life [42]: 2.73 h
AUC [43]: 7090 ng·h/mL
Ratio (Cynomolgus monkey [44]): 4.5
Ratio (Cynomolgus monkey [45]): 6.3
Papp A→B at 2 h, 1 µM [46]: 9.67 ×10⁻⁶ cm/s
Papp B→A at 2 h, 1 µM [47]: 30.4 ×10⁻⁶ cm/s
half-life [48]: 0.85 h
AUC [49]: 310 ng·h/mL
clearance [50]: 53.5 mL/min/kg
Tmax [51]: 1 h
Vd [52]: 2.54 L/kg
